From patent US20260306453A1, “FORMULATIONS CONTAINING TRYPTAMINE DERIVATIVES AND USES THEREOF” (priority 2023, published 2026)
Read-outs that look alike come from different tables or passages of the source.

How the values were obtained:
[1] = target: T1, 5-HT7A (Homo sapiens, UniProt P34969); assay: Radioligand binding in vitro assay, 5-HT7A
[2] = target: Sigma 1 (Homo sapiens, UniProt Q99720); assay: Radioligand binding in vitro assay, Sigma 1
[3] = target: Sigma 2 (Homo sapiens, UniProt Q5BJF2); assay: Radioligand binding in vitro assay, Sigma 2
[4] = target: T2, 5-HT2C (Homo sapiens, UniProt P28335); assay: biochemical; settings: radioligand binding
[5] = target: 5-HT5A (Homo sapiens, UniProt P47898); assay: Radioligand binding in vitro assay, 5-HT5A
[6] = target: T3, 5-HT6 (Homo sapiens, UniProt P50406); assay: Radioligand binding in vitro assay, 5-HT6
[7] = target: 5-HT1B (Homo sapiens, UniProt P28222); assay: Radioligand binding in vitro assay, 5-HT1B
[8] = target: 5-HT1D (Homo sapiens, UniProt P28221); assay: Radioligand binding in vitro assay, 5-HT1D
[9] = target: 5-HT1E (Homo sapiens, UniProt P28566); assay: Radioligand binding in vitro assay, 5-HT1E
[10] = target: T4, 5-HT2B (Homo sapiens, UniProt P41595); assay: Radioligand binding in vitro assay, 5-HT2B
[11] = test system: mice; assay: 2-day Porsolt Forced-Swim Test; type: in vivo; settings: Mus musculus, ip, both days, read-out: Porsolt Forced Swim (Both Days), minimum effective dose
From the text: The 2-day Porsolt Forced-Swim Test is a preclinical assay that tests for antidepressant effects in mice. […] Day 2 behavior is more likely to assess learning and memory with shorter swim times indicative of learning to be rescued.

[12] = target: T5, 5-HT2A (Homo sapiens, UniProt P28223); assay: In vitro functional activity, 5-HT2A; type: biochemical; settings: agonism
[13] = target: T4, 5-HT2B; assay: In vitro functional activity, 5-HT2B; type: biochemical; settings: agonism
From the text: (§1) The functional activity considers agonism vs. antagonism. […] Each of these receptors affects mental health, learning, memory, and more specifically, 5-HT6 is responsible for precognitive effects and neuronal connections, growth, and migration.

[14] = target: T3, 5-HT6; assay: In vitro functional activity, 5-HT6; type: biochemical; settings: agonism
From the text: as §1

[15] = target: T1, 5-HT7A; assay: In vitro functional activity, 5-HT7A; type: biochemical; settings: agonism; inverse agonism at 5-HT7A
From the text: as §1

[16] = test system: mice; assay: In vivo mouse head-twitch response
[17] = target: T2, 5-HT2C; assay: biochemical; settings: agonism
[18] = test system: mice; assay: Fear extinction and conditioning; type: in vivo, mouse
From the text: The fear extinction and conditioning model is a preclinical assay that performs a stimulus and tests response time and recognition of the stimulus. This translational model can correlate to anxiety, PTSD, memory, and precognitive effects to the positive control (4-AcO-DMT).

[19] = target: 5-HT1A (Homo sapiens, UniProt P08908); assay: Radioligand binding in vitro assay, 5-HT1A
[20] = target: T5, 5-HT2A; assay: biochemical; settings: radioligand binding
[21] = test system: mice; assay: Elevated plus maze
[22] = rat, in vivo
[23] = in vivo; settings: rat, 3 mg/kg
[24] = Rat pharmacodynamics (hypothermia) of intranasal DMT; settings: in vivo
[25] = type: in vivo; settings: rat; oral or IV administration; within minutes
Description: The rat PK (FIG. 6) was assessed with an oral dose of 10 mg/kg and intravenously at 1 mg/kg. […] The PK and brain concentrations were assessed in cohorts of 3 […] for each dosing group and between the plasma vs brain concentrations. For 10 mg/kg oral dosing, the PK parameters are outlined in Table 16 below.
1 mg/kg IV dosing, the PK parameters are outlined in Table 17.

[26] = radioligand binding, read-out: Ki Sigma 1
[27] = radioligand binding, read-out: Ki Sigma 2
[28] = radioligand binding, read-out: Ki 5-HT5A
[29] = radioligand binding, read-out: Ki 5-HT1B
[30] = radioligand binding, read-out: Ki 5-HT1D
[31] = radioligand binding, read-out: Ki 5-HT1E

Sequence of Sigma 1 (Q99720 whole entry): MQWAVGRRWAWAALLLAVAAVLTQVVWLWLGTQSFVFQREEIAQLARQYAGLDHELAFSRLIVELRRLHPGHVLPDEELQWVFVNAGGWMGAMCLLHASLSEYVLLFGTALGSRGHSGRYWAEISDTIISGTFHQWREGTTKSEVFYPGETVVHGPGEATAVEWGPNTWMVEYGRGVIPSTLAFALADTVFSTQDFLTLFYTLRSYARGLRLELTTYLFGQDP
Sequence of 5-HT5A (P47898 whole entry): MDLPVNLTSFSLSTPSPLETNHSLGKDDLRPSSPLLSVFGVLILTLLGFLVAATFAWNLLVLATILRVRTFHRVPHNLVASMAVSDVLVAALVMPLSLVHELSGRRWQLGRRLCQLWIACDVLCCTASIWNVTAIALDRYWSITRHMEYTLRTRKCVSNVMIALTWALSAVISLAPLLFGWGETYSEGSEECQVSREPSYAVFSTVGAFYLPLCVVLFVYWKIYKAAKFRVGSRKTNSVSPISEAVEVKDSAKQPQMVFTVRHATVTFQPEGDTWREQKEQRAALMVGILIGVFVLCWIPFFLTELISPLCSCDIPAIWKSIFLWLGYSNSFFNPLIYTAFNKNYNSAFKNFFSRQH
T5 sequence (P28223 whole entry): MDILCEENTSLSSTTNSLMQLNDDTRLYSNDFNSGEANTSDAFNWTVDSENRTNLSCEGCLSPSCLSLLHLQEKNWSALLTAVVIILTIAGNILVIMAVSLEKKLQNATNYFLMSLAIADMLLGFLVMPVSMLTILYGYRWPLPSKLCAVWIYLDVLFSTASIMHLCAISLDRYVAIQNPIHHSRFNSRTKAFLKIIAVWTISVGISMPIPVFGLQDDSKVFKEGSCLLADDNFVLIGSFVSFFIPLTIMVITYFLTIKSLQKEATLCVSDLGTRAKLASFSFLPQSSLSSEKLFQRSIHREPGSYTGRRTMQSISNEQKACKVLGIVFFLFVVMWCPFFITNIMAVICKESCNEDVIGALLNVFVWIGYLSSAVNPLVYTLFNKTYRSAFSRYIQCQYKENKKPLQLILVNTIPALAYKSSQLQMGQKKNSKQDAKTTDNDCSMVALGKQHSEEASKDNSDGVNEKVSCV
Sequence of 5-HT1D (P28221 whole entry): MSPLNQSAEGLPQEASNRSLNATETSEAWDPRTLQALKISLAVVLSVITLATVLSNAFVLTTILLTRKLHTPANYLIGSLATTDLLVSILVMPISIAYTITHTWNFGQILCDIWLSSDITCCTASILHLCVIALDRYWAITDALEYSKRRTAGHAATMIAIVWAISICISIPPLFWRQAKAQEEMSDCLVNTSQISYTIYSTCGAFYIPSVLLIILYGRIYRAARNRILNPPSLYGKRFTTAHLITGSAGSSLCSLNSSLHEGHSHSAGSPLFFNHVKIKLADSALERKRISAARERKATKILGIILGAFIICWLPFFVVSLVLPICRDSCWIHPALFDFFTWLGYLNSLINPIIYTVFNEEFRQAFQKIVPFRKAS
Sequence of 5-HT1A (P08908 whole entry): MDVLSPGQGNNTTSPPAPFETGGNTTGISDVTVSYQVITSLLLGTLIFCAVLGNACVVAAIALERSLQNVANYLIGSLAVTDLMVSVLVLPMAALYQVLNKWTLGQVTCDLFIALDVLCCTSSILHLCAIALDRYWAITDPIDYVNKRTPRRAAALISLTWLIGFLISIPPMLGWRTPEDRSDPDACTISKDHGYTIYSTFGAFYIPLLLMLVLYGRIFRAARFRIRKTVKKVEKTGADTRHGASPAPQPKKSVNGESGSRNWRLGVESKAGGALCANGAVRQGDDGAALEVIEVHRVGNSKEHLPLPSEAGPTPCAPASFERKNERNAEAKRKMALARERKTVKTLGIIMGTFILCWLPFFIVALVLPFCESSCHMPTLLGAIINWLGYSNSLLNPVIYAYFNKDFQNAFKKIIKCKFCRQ
Sequence of 5-HT1B (P28222 whole entry): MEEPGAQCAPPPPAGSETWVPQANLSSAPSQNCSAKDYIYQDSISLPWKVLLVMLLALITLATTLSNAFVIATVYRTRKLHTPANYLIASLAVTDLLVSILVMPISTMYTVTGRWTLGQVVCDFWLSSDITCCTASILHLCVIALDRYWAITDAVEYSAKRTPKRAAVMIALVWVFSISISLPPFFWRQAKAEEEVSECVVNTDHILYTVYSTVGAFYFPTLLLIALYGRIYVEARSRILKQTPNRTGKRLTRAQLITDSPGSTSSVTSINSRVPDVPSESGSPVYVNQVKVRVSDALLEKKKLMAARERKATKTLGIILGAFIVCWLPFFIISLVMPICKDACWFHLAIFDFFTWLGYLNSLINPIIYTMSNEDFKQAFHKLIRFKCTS
T1 sequence (P34969 other isoform, or with tags, fused parts or gaps): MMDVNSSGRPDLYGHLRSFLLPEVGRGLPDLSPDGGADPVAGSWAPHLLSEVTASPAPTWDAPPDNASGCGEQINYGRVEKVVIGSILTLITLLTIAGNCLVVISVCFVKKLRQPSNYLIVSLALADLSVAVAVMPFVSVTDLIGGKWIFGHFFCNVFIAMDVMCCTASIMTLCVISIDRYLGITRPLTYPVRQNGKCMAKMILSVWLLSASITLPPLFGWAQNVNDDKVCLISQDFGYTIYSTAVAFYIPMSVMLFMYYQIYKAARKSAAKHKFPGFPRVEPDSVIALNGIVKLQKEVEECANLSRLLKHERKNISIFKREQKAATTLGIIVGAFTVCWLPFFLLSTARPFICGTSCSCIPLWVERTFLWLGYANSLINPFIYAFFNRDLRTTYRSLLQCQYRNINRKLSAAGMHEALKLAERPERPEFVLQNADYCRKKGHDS
Sequence of 5-HT1E (P28566 whole entry): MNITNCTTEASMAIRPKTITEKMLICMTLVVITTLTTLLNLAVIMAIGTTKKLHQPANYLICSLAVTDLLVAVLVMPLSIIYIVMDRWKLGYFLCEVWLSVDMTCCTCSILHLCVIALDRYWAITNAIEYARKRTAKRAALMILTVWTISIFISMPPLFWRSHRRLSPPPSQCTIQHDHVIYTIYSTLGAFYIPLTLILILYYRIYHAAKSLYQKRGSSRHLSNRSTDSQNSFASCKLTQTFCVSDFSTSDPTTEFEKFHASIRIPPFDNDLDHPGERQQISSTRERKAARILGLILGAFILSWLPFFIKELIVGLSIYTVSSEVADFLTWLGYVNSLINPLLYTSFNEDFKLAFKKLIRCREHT
T2 sequence (P28335 33-458): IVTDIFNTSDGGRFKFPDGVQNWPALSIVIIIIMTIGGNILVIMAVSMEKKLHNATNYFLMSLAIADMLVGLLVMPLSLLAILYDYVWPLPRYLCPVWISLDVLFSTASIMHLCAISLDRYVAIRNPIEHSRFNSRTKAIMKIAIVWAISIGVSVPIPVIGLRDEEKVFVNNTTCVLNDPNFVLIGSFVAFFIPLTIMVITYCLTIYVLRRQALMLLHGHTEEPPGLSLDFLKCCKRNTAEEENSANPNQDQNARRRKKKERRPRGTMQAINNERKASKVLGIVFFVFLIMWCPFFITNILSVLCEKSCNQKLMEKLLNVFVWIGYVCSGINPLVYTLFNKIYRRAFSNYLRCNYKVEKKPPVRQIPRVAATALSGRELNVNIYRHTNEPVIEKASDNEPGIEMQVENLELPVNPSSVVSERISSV
T3 sequence (P50406 whole entry): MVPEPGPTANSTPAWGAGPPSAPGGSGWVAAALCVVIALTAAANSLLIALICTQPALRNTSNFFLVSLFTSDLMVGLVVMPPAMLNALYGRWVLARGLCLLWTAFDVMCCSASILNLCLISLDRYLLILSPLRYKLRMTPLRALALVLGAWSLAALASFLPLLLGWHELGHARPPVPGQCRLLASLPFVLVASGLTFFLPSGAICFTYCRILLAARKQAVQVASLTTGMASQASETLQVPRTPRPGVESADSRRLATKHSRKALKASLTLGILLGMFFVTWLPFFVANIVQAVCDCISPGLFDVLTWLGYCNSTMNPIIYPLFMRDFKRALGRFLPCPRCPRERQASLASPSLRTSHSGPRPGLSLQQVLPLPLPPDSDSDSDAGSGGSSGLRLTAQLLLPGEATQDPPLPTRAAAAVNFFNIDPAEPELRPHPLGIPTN
T4 sequence (P41595 whole entry): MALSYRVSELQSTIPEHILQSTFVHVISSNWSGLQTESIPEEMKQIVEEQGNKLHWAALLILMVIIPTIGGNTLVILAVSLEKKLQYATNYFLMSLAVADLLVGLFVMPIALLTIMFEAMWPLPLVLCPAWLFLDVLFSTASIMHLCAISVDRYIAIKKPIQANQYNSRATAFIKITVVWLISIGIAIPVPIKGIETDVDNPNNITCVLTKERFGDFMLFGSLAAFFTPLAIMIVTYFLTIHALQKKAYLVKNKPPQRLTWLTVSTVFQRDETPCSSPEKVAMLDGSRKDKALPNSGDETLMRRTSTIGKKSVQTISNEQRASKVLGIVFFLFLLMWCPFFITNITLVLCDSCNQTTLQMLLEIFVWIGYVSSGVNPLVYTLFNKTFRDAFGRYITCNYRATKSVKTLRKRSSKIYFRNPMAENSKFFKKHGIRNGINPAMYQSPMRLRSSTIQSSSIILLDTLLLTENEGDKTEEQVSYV
Sequence of Sigma 2 (Q5BJF2 whole entry): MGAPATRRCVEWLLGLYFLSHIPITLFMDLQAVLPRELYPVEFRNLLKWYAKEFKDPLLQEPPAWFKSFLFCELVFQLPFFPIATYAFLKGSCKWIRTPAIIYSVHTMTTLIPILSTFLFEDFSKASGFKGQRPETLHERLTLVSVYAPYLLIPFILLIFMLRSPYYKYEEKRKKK

## CC(=O)Oc1cccc2[nH]cc(CCN(C)C)c12 [drawing 11]
[1]; radioligand binding
  Ki: 59.6 nM
[2]; [26]
  Ki: > 10000 nM
[3]; [27]
  Ki: > 10000 nM

## CN(C)CCc1c(Cl)[nH]c2ccccc12 [drawing 10]
[4]
  Ki: 120 nM
[5]; [28]
  Ki: 3000 nM
[6]; radioligand binding
  Ki: 62 nM
[1]; radioligand binding
  Ki: 178 nM
[2]; [26]
  Ki: 638 nM
[3]; [27]
  Ki: > 10000 nM

## CN(C)CCc1c(Cl)[nH]c2ccccc12 [drawing 3]
[7]; [29]
  Ki: > 10000 nM
[8]; [30]
  Ki: > 10000 nM
[9]; [31]
  Ki: 3910 nM
[10]
  Ki: 191 nM

## CC(=O)Nc1cccc2[nH]cc(CCN(C)C)c12 [drawing 15]
[4]
  Ki: 1000 nM
[6]; radioligand binding
  Ki: > 10000 nM
[1]; radioligand binding
  Ki: 290 nM
[2]; [26]
  Ki: > 10000 nM
[3]; [27]
  Ki: > 10000 nM

## CC(C)N(CCc1c(Br)[nH]c2ccccc12)C(C)C [drawing 6]
[7]; [29]
  Ki: > 10000 nM
[8]; [30]
  Ki: 1070 nM
[9]; [31]
  Ki: > 10000 nM
[10]
  Ki: 45.2 nM

## CC(=O)Oc1cccc2[nH]c(Br)c(CCN(C)C)c12 [drawing 12]
[4]
  Ki: 1220 nM
[5]; [28]
  Ki: 894 nM
[6]; radioligand binding
  Ki: 70.7 nM
[1]; radioligand binding
  Ki: 396 nM
[2]; [26]
  Ki: > 10000 nM
[3]; [27]
  Ki: > 10000 nM

## CC(=O)Oc1cccc2[nH]c(Br)c(CCN(C)C)c12 [drawing 29]
[11]
  minimal effective dose: 5 mg/kg

## CC(=O)Oc1cccc2[nH]cc(CCN(C)C)c12 [drawing 4]
[10]
  Ki: 11.6 nM

## CN(C)CCc1c(Br)[nH]c2ccccc12 [drawing 16]
[12]
  EC50: > 10000 nM
[13]
  EC50: 799 nM
[14]
  EC50: 7 nM
[15]
  EC50: 225 nM

## CC(=O)Oc1cccc2[nH]cc(CCN(C)C)c12 [drawing 22, reference compound]
[16]
  Head Twitch Response Results: Positive Control causes head twitch at 20 mg/kg

## CC(=O)Nc1cccc2[nH]cc(CCN(C)C)c12 [drawing 26]
[16]
  Head Twitch Response Results: No Head Twitch up to 50 mg/kg

## CN(C)CCc1c(Cl)[nH]c2ccccc12 [drawing 21]
[16]
  Head Twitch Response Results: No Head Twitch up to 100 mg/kg

## CC(=O)Oc1cccc2[nH]c(Br)c(CCN(C)C)c12 [drawing 18]
[17]
  EC50: 864 nM
[14]
  EC50: 8 nM
[15]
  EC50: 917 nM

## CN(C)CCc1c(Br)[nH]c2ccccc12 [drawing 34]
[18]
  Fear Extinction and Conditioning, effective dose range: 1 to 10 mg/kg

## CN(C)CCc1c[nH]c2cccc(NS(C)(=O)=O)c12 [drawing 25]
[16]
  Head Twitch Response Results: No Head Twitch up to 25 mg/kg

## CC(=O)Nc1cccc2[nH]cc(CCN(C)C)c12 [drawing 8]
[19]
  Ki: 570 nM
[20]
  Ki: 3400 nM
[10]
  Ki: 700 nM

## CN(C)CCc1c(Br)[nH]c2ccccc12 [drawing 20]
[16]
  Head Twitch Response Results: No Head Twitch up to 50 mg/kg

## CN(C)CCc1c[nH]c2cccc(NS(C)(=O)=O)c12 [drawing 33]
[21]
  Elevated Plus Maze, effective dose range: 25 mg/kg

## CC(C)N(CCc1c(Br)[nH]c2ccccc12)C(C)C [drawing 24]
[16]
  Head Twitch Response Results: No Head Twitch up to 25 mg/kg

## CC(C)N(CCc1c(Br)[nH]c2ccccc12)C(C)C [drawing 19]
[12]
  EC50: 2130 nM
[13]
  EC50: 18 nM
[17]
  EC50: > 10000 nM
[14]
  EC50: 186 nM
[15]
  EC50: 5870 nM

## CN(C)CCc1c(Cl)[nH]c2ccccc12 [drawing 28]
[11]
  minimal effective dose: 25 mg/kg

## CC(C)N(CCc1c(Br)[nH]c2ccccc12)C(C)C [drawing 13]
[4]
  Ki: > 10000 nM
[5]; [28]
  Ki: > 10000 nM
[6]; radioligand binding
  Ki: 407 nM
[1]; radioligand binding
  Ki: 4930 nM
[2]; [26]
  Ki: 257 nM
[3]; [27]
  Ki: 483 nM

## CC(=O)Oc1cccc2[nH]c(Br)c(CCN(C)C)c12 [drawing 35]
[18]
  Fear Extinction and Conditioning, effective dose range: 5 to 25 mg/kg

## CN(C)CCc1c(Br)[nH]c2ccccc12 [drawing 27]
[11]
  minimal effective dose: 1 to 10 mg/kg

## CC(C)N(CCc1c(Br)[nH]c2ccccc12)C(C)C [drawing 36]
[18]
  Fear Extinction and Conditioning, effective dose range: 1 to 10 mg/kg

## CC(C)N(CCc1c(Br)[nH]c2ccccc12)C(C)C [drawing 30]
[11]
  minimal effective dose: 10 mg/kg

## CN(C)CCc1c[nH]c2ccccc12 [N,N-dimethyltryptamine, reference compound]
[7]
  Ki: 557 nM
[8]
  Ki: 42.2 nM
[9]
  Ki: 104 nM
[5]
  Ki: 155 nM
[6]
  Ki: 134 nM
[1]
  Ki: 15.2 nM
[2]
  Ki: 230 nM
[3]
  Ki: 777 nM
[22]
  tmax (maximal effects): 10 min
[23]
  Cmax: 60 ng/mL
[24]
  hypothermia: dose-dependent hypothermia

## CN(C)CCc1c(Br)[nH]c2ccccc12 [drawing 2]
[19]
  Ki: > 10000 nM
[7]; [29]
  Ki: > 10000 nM
[8]; [30]
  Ki: > 10000 nM
[9]; [31]
  Ki: > 10000 nM
[20]
  Ki: 417 nM
[10]
  Ki: 222 nM

## CC(=O)Oc1cccc2[nH]c(Br)c(CCN(C)C)c12 [drawing 5]
[7]; [29]
  Ki: > 10000 nM
[8]; [30]
  Ki: > 10000 nM
[9]; [31]
  Ki: > 10000 nM
[10]
  Ki: 67.7 nM

## CC(=O)Oc1cccc2[nH]c(Br)c(CCN(C)C)c12 [drawing 31]
[21]
  Elevated Plus Maze, effective dose range: 5 to 10 mg/kg

## CN(C)CCc1c(Cl)[nH]c2ccccc12 [drawing 17]
[12]
  EC50: 202 nM
[17]
  EC50: 4480 nM
[14]
  EC50: 9 nM
[15]
  EC50: 630 nM

## CN(C)CCc1c[nH]c2cccc(NS(C)(=O)=O)c12 [drawing 7]
[19]
  Ki: 2900 nM
[20]
  Ki: > 10000 nM
[10]
  Ki: 1900 nM

## CN(C)CCc1c[nH]c2cccc(NS(C)(=O)=O)c12 [drawing 14]
[4]
  Ki: > 10000 nM
[6]; radioligand binding
  Ki: > 10000 nM
[1]; radioligand binding
  Ki: 930 nM
[2]; [26]
  Ki: > 10000 nM
[3]; [27]
  Ki: > 10000 nM

## CC(=O)Oc1cccc2[nH]c(Br)c(CCN(C)C)c12 [drawing 23]
[16]
  Head Twitch Response Results: No Head Twitch up to 50 mg/kg

## Br.CN(C)CCc1c(Br)[nH]c2ccccc12 [2-Br-4-AcO-DMT*HBr, 2-(2-bromo-1H-indol-3-yl)-N,N-dimethylethan-1-amine hydrobromide salt]
[25]
  metabolism via deacetylation into 2-Br-4-OH-DMT: rapidly metabolized via deacetylation into an active metabolite

## CN(C)CCc1c(Br)[nH]c2ccccc12 [drawing 9]
[5]; [28]
  Ki: 1520 nM
[1]; radioligand binding
  Ki: 137 nM
[2]; [26]
  Ki: 239 nM
[3]; [27]
  Ki: 2460 nM

## CC(C)N(CCc1c(Br)[nH]c2ccccc12)C(C)C [drawing 32]
[21]
  Elevated Plus Maze, effective dose range: 25 mg/kg
